Assay results reported in ChEMBL document CHEMBL3044736, “Synthesis, characterization, solvatochromic properties, and antimicrobial evaluation of 5-acetyl-2-thioxo-dihydro-pyrimidine-4,6-dione-based chalcones” (2013).
Converted amounts (≈) assume the structure as drawn.

Tests used:
Format in all cases: functional
Candida albicans [1] = assay: Antimicrobial activity against Candida albicans MTCC 227 assessed as diameter of growth inhibition zone at 50 ug/ml after 48-96 hr by agar cup diffusion method; conditions: read-out: DIZ
Penicillium [2] = assay: Antimicrobial activity against Penicillium wild strain assessed as diameter of growth inhibition zone at 250 ug/ml after 48-96 hr by agar cup diffusion method; conditions: read-out: DIZ
Staphylococcus aureus [3] = assay: Antimicrobial activity against Staphylococcus aureus MTCC 96 assessed as diameter of growth inhibition zone at 25 ug/ml after 18-24 hr by agar cup diffusion method; conditions: read-out: DIZ
Streptococcus pyogenes [4] = assay: Antimicrobial activity against Streptococcus pyogenes MTCC 442 by agar cup diffusion method
Escherichia coli [5] = assay: Antimicrobial activity against Escherichia coli MTCC 443 assessed as diameter of growth inhibition zone at 50 ug/ml after 18-24 hr by agar cup diffusion method; conditions: read-out: DIZ
Penicillium [6] = assay: Antimicrobial activity against Penicillium wild strain assessed as diameter of growth inhibition zone at 100 ug/ml after 48-96 hr by agar cup diffusion method; conditions: read-out: DIZ
Pseudomonas aeruginosa [7] = assay: Antimicrobial activity against Pseudomonas aeruginosa MTCC 1688 assessed as diameter of growth inhibition zone at 250 ug/ml after 18-24 hr by agar cup diffusion method; conditions: read-out: DIZ
Streptococcus pyogenes [8] = assay: Antimicrobial activity against Streptococcus pyogenes MTCC 442 assessed as diameter of growth inhibition zone at 100 ug/ml after 18-24 hr by agar cup diffusion method; conditions: read-out: DIZ
Klebsiella pneumoniae [9] = assay: Antimicrobial activity against Klebsiella pneumoniae MTCC 109 assessed as diameter of growth inhibition zone at 25 ug/ml after 18-24 hr by agar cup diffusion method; conditions: read-out: DIZ
Staphylococcus aureus [10] = assay: Antimicrobial activity against Staphylococcus aureus MTCC 96 assessed as diameter of growth inhibition zone at 50 ug/ml after 18-24 hr by agar cup diffusion method; conditions: read-out: DIZ
Candida albicans [11] = assay: Antimicrobial activity against Candida albicans MTCC 227 assessed as diameter of growth inhibition zone at 100 ug/ml after 48-96 hr by agar cup diffusion method; conditions: read-out: DIZ
Staphylococcus aureus [12] = assay: Antimicrobial activity against Staphylococcus aureus MTCC 96 assessed as diameter of growth inhibition zone at 100 ug/ml after 18-24 hr by agar cup diffusion method; conditions: read-out: DIZ
Escherichia coli [13] = assay: Antimicrobial activity against Escherichia coli MTCC 443 assessed as diameter of growth inhibition zone at 250 ug/ml after 18-24 hr by agar cup diffusion method; conditions: read-out: DIZ
Aspergillus clavatus [14] = assay: Antimicrobial activity against Aspergillus clavatus MTCC 1323 assessed as diameter of growth inhibition zone at 100 ug/ml after 48-96 hr by agar cup diffusion method; conditions: read-out: DIZ
Aspergillus clavatus [15] = assay: Antimicrobial activity against Aspergillus clavatus MTCC 1323 assessed as diameter of growth inhibition zone at 50 ug/ml after 48-96 hr by agar cup diffusion method; conditions: read-out: DIZ
Escherichia coli [16] = assay: Antimicrobial activity against Escherichia coli MTCC 443 assessed as diameter of growth inhibition zone at 25 ug/ml after 18-24 hr by agar cup diffusion method; conditions: read-out: DIZ
Aspergillus clavatus [17] = assay: Antimicrobial activity against Aspergillus clavatus MTCC 1323 assessed as diameter of growth inhibition zone at 25 ug/ml after 48-96 hr by agar cup diffusion method; conditions: read-out: DIZ
Klebsiella pneumoniae [18] = assay: Antimicrobial activity against Klebsiella pneumoniae MTCC 109 assessed as diameter of growth inhibition zone at 50 ug/ml after 18-24 hr by agar cup diffusion method; conditions: read-out: DIZ
Pseudomonas aeruginosa [19] = assay: Antimicrobial activity against Pseudomonas aeruginosa MTCC 1688 by agar cup diffusion method
Candida albicans [20] = assay: Antimicrobial activity against Candida albicans MTCC 227 assessed as diameter of growth inhibition zone at 25 ug/ml after 48-96 hr by agar cup diffusion method; conditions: read-out: DIZ
Trichophyton rubrum [21] = assay: Antimicrobial activity against Trichophyton rubrum MTCC 296 by agar cup diffusion method
Aspergillus clavatus [22] = assay: Antimicrobial activity against Aspergillus clavatus MTCC 1323 by agar cup diffusion method
Escherichia coli [23] = assay: Antimicrobial activity against Escherichia coli MTCC 443 by agar cup diffusion method
Klebsiella pneumoniae [24] = assay: Antimicrobial activity against Klebsiella pneumoniae MTCC 109 assessed as diameter of growth inhibition zone at 100 ug/ml after 18-24 hr by agar cup diffusion method; conditions: read-out: DIZ
Staphylococcus aureus [25] = assay: Antimicrobial activity against Staphylococcus aureus MTCC 96 by agar cup diffusion method
Penicillium [26] = assay: Antimicrobial activity against Penicillium wild strain by agar cup diffusion method
Penicillium [27] = assay: Antimicrobial activity against Penicillium wild strain assessed as diameter of growth inhibition zone at 50 ug/ml after 48-96 hr by agar cup diffusion method; conditions: read-out: DIZ
Pseudomonas aeruginosa [28] = assay: Antimicrobial activity against Pseudomonas aeruginosa MTCC 1688 assessed as diameter of growth inhibition zone at 50 ug/ml after 18-24 hr by agar cup diffusion method; conditions: read-out: DIZ
Trichophyton rubrum [29] = assay: Antimicrobial activity against Trichophyton rubrum MTCC 296 assessed as diameter of growth inhibition zone at 50 ug/ml after 48-96 hr by agar cup diffusion method; conditions: read-out: DIZ
Trichophyton rubrum [30] = assay: Antimicrobial activity against Trichophyton rubrum MTCC 296 assessed as diameter of growth inhibition zone at 100 ug/ml after 48-96 hr by agar cup diffusion method; conditions: read-out: DIZ
Penicillium [31] = assay: Antimicrobial activity against Penicillium wild strain assessed as diameter of growth inhibition zone at 25 ug/ml after 48-96 hr by agar cup diffusion method; conditions: read-out: DIZ
Staphylococcus aureus [32] = assay: Antimicrobial activity against Staphylococcus aureus MTCC 96 assessed as diameter of growth inhibition zone at 250 ug/ml after 18-24 hr by agar cup diffusion method; conditions: read-out: DIZ
Escherichia coli [33] = assay: Antimicrobial activity against Escherichia coli MTCC 443 assessed as diameter of growth inhibition zone at 100 ug/ml after 18-24 hr by agar cup diffusion method; conditions: read-out: DIZ
Klebsiella pneumoniae [34] = assay: Antimicrobial activity against Klebsiella pneumoniae MTCC 109 assessed as diameter of growth inhibition zone at 250 ug/ml after 18-24 hr by agar cup diffusion method; conditions: read-out: DIZ
Trichophyton rubrum [35] = assay: Antimicrobial activity against Trichophyton rubrum MTCC 296 assessed as diameter of growth inhibition zone at 25 ug/ml after 48-96 hr by agar cup diffusion method; conditions: read-out: DIZ
Candida albicans [36] = assay: Antimicrobial activity against Candida albicans MTCC 227 assessed as diameter of growth inhibition zone at 250 ug/ml after 48-96 hr by agar cup diffusion method; conditions: read-out: DIZ
Trichophyton rubrum [37] = assay: Antimicrobial activity against Trichophyton rubrum MTCC 296 assessed as diameter of growth inhibition zone at 250 ug/ml after 48-96 hr by agar cup diffusion method; conditions: read-out: DIZ
Streptococcus pyogenes [38] = assay: Antimicrobial activity against Streptococcus pyogenes MTCC 442 assessed as diameter of growth inhibition zone at 25 ug/ml after 18-24 hr by agar cup diffusion method; conditions: read-out: DIZ
Klebsiella pneumoniae [39] = assay: Antimicrobial activity against Klebsiella pneumoniae MTCC 109 by agar cup diffusion method
Streptococcus pyogenes [40] = assay: Antimicrobial activity against Streptococcus pyogenes MTCC 442 assessed as diameter of growth inhibition zone at 250 ug/ml after 18-24 hr by agar cup diffusion method; conditions: read-out: DIZ
Pseudomonas aeruginosa [41] = assay: Antimicrobial activity against Pseudomonas aeruginosa MTCC 1688 assessed as diameter of growth inhibition zone at 100 ug/ml after 18-24 hr by agar cup diffusion method; conditions: read-out: DIZ
Aspergillus clavatus [42] = assay: Antimicrobial activity against Aspergillus clavatus MTCC 1323 assessed as diameter of growth inhibition zone at 250 ug/ml after 48-96 hr by agar cup diffusion method; conditions: read-out: DIZ
Streptococcus pyogenes [43] = assay: Antimicrobial activity against Streptococcus pyogenes MTCC 442 assessed as diameter of growth inhibition zone at 50 ug/ml after 18-24 hr by agar cup diffusion method; conditions: read-out: DIZ
Pseudomonas aeruginosa [44] = assay: Antimicrobial activity against Pseudomonas aeruginosa MTCC 1688 assessed as diameter of growth inhibition zone at 25 ug/ml after 18-24 hr by agar cup diffusion method; conditions: read-out: DIZ
Candida albicans [45] = assay: Antimicrobial activity against Candida albicans MTCC 227 by agar cup diffusion method

COc1ccc(/C=C/C(=O)C2C(=O)NC(=S)NC2=O)cc1
zone of inhibition at 50 µg/mL (Candida albicans [1]): 21 mm
zone of inhibition at 250 µg/mL (Penicillium [2]): 25 mm
zone of inhibition at 25 µg/mL (Staphylococcus aureus [3]): 13 mm
MBC (Streptococcus pyogenes [4]): 250 µg/mL (≈ 821 µM)
MIC (Streptococcus pyogenes [4]): 200 µg/mL (≈ 657 µM)
zone of inhibition at 50 µg/mL (Escherichia coli [5]): 18 mm
zone of inhibition at 100 µg/mL (Penicillium [6]): 23 mm
zone of inhibition at 250 µg/mL (Pseudomonas aeruginosa [7]): 21 mm
zone of inhibition at 100 µg/mL (Streptococcus pyogenes [8]): 20 mm
zone of inhibition at 25 µg/mL (Klebsiella pneumoniae [9]): 11 mm
zone of inhibition at 50 µg/mL (Staphylococcus aureus [10]): 17 mm
zone of inhibition at 100 µg/mL (Candida albicans [11]): 24 mm
zone of inhibition at 100 µg/mL (Staphylococcus aureus [12]): 18 mm
zone of inhibition at 250 µg/mL (Escherichia coli [13]): 21 mm
zone of inhibition at 100 µg/mL (Aspergillus clavatus [14]): 23 mm
zone of inhibition at 50 µg/mL (Aspergillus clavatus [15]): 21 mm
zone of inhibition at 25 µg/mL (Escherichia coli [16]): 15 mm
zone of inhibition at 25 µg/mL (Aspergillus clavatus [17]): 20 mm
zone of inhibition at 50 µg/mL (Klebsiella pneumoniae [18]): 13 mm
MBC (Pseudomonas aeruginosa [19]): 125 µg/mL (≈ 411 µM)
MIC (Pseudomonas aeruginosa [19]): 100 µg/mL (≈ 329 µM)
zone of inhibition at 25 µg/mL (Candida albicans [20]): 18 mm
MFC (Trichophyton rubrum [21]): > 1000 µg/mL
MIC (Trichophyton rubrum [21]): > 1000 µg/mL
MFC (Aspergillus clavatus [22]): 1000 µg/mL (≈ 3290 µM)
MIC (Aspergillus clavatus [22]): 500 µg/mL (≈ 1640 µM)
MBC (Escherichia coli [23]): 250 µg/mL (≈ 821 µM)
MIC (Escherichia coli [23]): 200 µg/mL (≈ 657 µM)
zone of inhibition at 100 µg/mL (Klebsiella pneumoniae [24]): 14 mm
MBC (Staphylococcus aureus [25]): 250 µg/mL (≈ 821 µM)
MIC (Staphylococcus aureus [25]): 200 µg/mL (≈ 657 µM)
MFC (Penicillium [26]): 500 µg/mL (≈ 1640 µM)
MIC (Penicillium [26]): 500 µg/mL (≈ 1640 µM)
zone of inhibition at 50 µg/mL (Penicillium [27]): 21 mm
zone of inhibition at 50 µg/mL (Pseudomonas aeruginosa [28]): 17 mm
zone of inhibition at 50 µg/mL (Trichophyton rubrum [29]): 20 mm
zone of inhibition at 100 µg/mL (Trichophyton rubrum [30]): 21 mm
zone of inhibition at 25 µg/mL (Penicillium [31]): 21 mm
zone of inhibition at 250 µg/mL (Staphylococcus aureus [32]): 21 mm
zone of inhibition at 100 µg/mL (Escherichia coli [33]): 20 mm
zone of inhibition at 250 µg/mL (Klebsiella pneumoniae [34]): 17 mm
zone of inhibition at 25 µg/mL (Trichophyton rubrum [35]): 19 mm
zone of inhibition at 250 µg/mL (Candida albicans [36]): 24 mm
zone of inhibition at 250 µg/mL (Trichophyton rubrum [37]): 22 mm
zone of inhibition at 25 µg/mL (Streptococcus pyogenes [38]): 15 mm
MBC (Klebsiella pneumoniae [39]): 250 µg/mL (≈ 821 µM)
MIC (Klebsiella pneumoniae [39]): 200 µg/mL (≈ 657 µM)
zone of inhibition at 250 µg/mL (Streptococcus pyogenes [40]): 21 mm
zone of inhibition at 100 µg/mL (Pseudomonas aeruginosa [41]): 18 mm
zone of inhibition at 250 µg/mL (Aspergillus clavatus [42]): 24 mm
zone of inhibition at 50 µg/mL (Streptococcus pyogenes [43]): 18 mm
zone of inhibition at 25 µg/mL (Pseudomonas aeruginosa [44]): 13 mm
MFC (Candida albicans [45]): 1000 µg/mL (≈ 3290 µM)
MIC (Candida albicans [45]): > 1000 µg/mL
